Calls of active or inactive are those of the source. No cut-off for these calls is given here.
Tested on: Mycobacterium tuberculosis
Experiment: Antitubercular activity against Mycobacterium tuberculosis H37Rv at 6.25 ug/ml by BACTEC 460 radiometric assay
Assay type: functional

Compound	Activity	inhibition at 6.25 µg/mL [%]
CCCCC[C@@H](CCCCCCCCCC(=O)O)O[C@@H]1O[C@H](C)[C@H](O)[C@H](O)[C@H]1O[C@@H]1O[C@@H](C)[C@H](O[C@@H]2O[C@@H](C)[C@H](O[C@@H]3O[C@@H](C)[C@H](O)[C@@H](O)[C@H]3O)[C@@H](O)[C@H]2O[C@@H]2O[C@H](CO)[C@@H](O)[C@H](O)[C@H]2O)[C@@H](O)[C@H]1O	inactive	–
CCCCCCCCCCCC(=O)O[C@H]1[C@H](O[C@@H]2[C@@H](OC)[C@H]3OC(=O)CCCCCCCCC[C@H](CCCCC)O[C@@H]4O[C@H](C)[C@H](OC)[C@H](OC)[C@H]4O[C@@H]3O[C@H]2C)O[C@@H](C)[C@H](O[C@@H]2O[C@@H](C)[C@H](OC(=O)CC)[C@@H](OC)[C@H]2OC(=O)/C=C/c2ccccc2)[C@H]1O[C@@H]1O[C@H](COC)[C@@H](OC)[C@H](OC)[C@H]1OC	inactive	–
CCCCCCCCCCCC(=O)O[C@H]1[C@H](O[C@@H]2[C@@H](O)[C@H]3OC(=O)CCCCCCCCC[C@H](CCCCC)O[C@@H]4O[C@H](C)[C@H](O)[C@H](O)[C@H]4O[C@@H]3O[C@H]2C)O[C@@H](C)[C@H](O[C@@H]2O[C@@H](C)[C@H](OC(=O)CC)[C@@H](O)[C@H]2O)[C@H]1O[C@@H]1O[C@H](CO)[C@@H](O)[C@H](O)[C@H]1O	inactive	–
CCCCCCCCCCCC(=O)O[C@H]1[C@H](O[C@@H]2[C@@H](O)[C@H]3OC(=O)CCCCCCCCC[C@H](CCCCC)O[C@@H]4O[C@H](C)[C@H](O)[C@H](O)[C@H]4O[C@@H]3O[C@H]2C)O[C@@H](C)[C@H](O[C@@H]2O[C@@H](C)[C@H](OC(=O)CC)[C@@H](O)[C@H]2OC(=O)/C=C/c2ccccc2)[C@H]1O[C@@H]1O[C@H](CO)[C@@H](O)[C@H](O)[C@H]1O	–	13
